The structures appear in SMILES notation. A value given as a limit tells only on which side of the number the result lay.

One series addresses T1, Monoglyceride lipase (Homo sapiens, UniProt Q99685).
T1 sequence (Q99685 whole entry): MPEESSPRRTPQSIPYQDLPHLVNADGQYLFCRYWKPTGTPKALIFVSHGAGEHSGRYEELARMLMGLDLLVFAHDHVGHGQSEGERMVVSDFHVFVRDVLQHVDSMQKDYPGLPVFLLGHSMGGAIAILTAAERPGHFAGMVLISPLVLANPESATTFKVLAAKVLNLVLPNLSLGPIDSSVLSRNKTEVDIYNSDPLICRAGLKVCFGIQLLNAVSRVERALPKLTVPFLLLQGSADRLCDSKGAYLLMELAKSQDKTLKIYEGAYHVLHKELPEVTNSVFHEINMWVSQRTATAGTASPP
Briefly: Inhibition of human MAGL.

The target of a further series is Cannabinoid receptor 1 (Homo sapiens, UniProt P21554). Briefly: Antagonist activity at CB1R (unknown origin). Format: functional.
Chain of Cannabinoid receptor 1 (P21554 whole entry): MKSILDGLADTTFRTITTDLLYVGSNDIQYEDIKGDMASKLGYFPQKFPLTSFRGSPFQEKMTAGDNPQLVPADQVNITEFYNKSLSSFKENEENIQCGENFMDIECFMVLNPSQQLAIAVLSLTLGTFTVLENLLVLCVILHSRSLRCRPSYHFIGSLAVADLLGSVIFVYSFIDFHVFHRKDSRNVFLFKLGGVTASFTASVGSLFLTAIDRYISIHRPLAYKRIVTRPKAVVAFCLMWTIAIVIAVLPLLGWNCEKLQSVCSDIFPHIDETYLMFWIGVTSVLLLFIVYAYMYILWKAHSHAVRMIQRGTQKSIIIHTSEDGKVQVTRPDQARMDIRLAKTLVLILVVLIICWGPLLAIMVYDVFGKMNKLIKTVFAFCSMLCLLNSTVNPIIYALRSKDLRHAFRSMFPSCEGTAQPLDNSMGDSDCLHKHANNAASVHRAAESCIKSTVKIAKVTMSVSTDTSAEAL
The target in series [1] is T2, Fatty-acid amide hydrolase 1 (Mus musculus, UniProt O08914).
T2 sequence (O08914 whole entry): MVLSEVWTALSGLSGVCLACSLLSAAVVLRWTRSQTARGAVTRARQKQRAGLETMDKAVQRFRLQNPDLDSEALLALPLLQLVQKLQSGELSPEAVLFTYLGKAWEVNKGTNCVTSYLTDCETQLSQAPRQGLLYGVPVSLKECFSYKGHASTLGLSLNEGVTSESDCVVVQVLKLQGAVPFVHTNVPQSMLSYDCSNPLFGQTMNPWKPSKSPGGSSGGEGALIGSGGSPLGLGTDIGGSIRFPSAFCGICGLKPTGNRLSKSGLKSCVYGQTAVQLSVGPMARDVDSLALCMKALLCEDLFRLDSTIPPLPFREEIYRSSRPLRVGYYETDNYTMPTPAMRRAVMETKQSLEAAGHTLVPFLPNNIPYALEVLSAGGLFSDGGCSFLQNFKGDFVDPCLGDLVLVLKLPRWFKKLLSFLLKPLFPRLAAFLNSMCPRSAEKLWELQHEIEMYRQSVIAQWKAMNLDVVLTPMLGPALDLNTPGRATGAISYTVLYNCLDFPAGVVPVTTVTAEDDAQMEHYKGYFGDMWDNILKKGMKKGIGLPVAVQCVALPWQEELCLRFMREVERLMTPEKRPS
Briefly: Inhibition of CD1 mouse FAAH.

Series [2] addresses T3, Fatty-acid amide hydrolase 1 (Rattus norvegicus, UniProt P97612).
T3 sequence (P97612 whole entry): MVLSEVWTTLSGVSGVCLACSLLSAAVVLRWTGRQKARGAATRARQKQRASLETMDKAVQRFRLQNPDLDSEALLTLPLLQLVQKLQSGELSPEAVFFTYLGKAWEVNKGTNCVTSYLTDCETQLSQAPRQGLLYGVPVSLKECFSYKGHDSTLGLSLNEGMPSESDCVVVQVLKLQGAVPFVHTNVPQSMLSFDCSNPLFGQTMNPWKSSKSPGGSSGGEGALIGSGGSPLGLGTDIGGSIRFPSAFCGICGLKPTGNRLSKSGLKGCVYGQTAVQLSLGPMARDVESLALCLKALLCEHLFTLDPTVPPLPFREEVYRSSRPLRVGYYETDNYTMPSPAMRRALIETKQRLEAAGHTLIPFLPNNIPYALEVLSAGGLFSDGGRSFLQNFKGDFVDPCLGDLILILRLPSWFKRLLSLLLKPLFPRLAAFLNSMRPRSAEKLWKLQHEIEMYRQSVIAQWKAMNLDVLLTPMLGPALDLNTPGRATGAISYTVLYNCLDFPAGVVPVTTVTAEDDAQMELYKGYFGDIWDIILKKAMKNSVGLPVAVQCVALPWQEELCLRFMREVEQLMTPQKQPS
The experiment in a line: Inhibition of Sprague-Dawley rat brain FAAH using [14C]anandamide as substrate by liquid scintillation counting method.

Series [3] is described as follows: Oral bioavailability in monkey at 10 mg/kg. The conditions noted are these: rhesus monkey, in vivo. Format: ADME, organism-based, Macaca mulatta.
A short description of series [4]: Half life in monkey at 10 mg/kg, po or 1 mg/kg, iv. Format: ADME, organism-based, Macaca mulatta. The conditions noted are these: rhesus monkey, in vivo.
Series [5] concerns the target T4, Fatty-acid amide hydrolase 1 (Homo sapiens, UniProt O00519).
T4 sequence (O00519 whole entry): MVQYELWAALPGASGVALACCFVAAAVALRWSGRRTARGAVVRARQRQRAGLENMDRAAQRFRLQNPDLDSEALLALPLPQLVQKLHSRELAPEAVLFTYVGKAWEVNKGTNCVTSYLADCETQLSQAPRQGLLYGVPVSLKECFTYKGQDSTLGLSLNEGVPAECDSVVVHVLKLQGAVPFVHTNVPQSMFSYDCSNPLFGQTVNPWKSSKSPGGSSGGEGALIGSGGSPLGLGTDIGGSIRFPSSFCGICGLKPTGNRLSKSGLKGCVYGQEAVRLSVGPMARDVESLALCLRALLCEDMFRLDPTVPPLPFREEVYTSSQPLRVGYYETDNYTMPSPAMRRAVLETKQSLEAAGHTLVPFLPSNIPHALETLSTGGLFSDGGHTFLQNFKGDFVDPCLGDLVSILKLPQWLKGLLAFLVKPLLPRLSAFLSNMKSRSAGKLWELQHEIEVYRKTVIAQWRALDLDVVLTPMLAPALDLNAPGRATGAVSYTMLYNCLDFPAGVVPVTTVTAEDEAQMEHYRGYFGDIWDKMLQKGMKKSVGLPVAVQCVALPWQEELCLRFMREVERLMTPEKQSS
Briefly: Inhibition of FAAH (unknown origin).

Series [6] concerns the target T3, Fatty-acid amide hydrolase 1. Briefly: Inhibition of rat FAAH expressed in HEK293 cells by LC/MS analysis. Format: cell-based.
For series [7], the target named is T5, N-acylethanolamine-hydrolyzing acid amidase (Rattus norvegicus, UniProt Q5KTC7).
T5 sequence (Q5KTC7 whole entry): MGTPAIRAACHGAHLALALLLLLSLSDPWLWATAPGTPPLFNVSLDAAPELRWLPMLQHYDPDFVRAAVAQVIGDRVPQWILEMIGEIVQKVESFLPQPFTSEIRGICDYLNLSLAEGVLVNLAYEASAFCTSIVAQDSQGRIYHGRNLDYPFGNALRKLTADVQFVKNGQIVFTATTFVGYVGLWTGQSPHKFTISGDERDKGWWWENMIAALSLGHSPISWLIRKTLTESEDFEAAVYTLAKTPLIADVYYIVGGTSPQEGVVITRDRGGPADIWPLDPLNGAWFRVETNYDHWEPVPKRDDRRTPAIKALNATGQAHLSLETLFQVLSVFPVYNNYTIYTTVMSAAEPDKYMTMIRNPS
Briefly: Inhibition of rat NAAA expressed in HEK293 cells by LC/MS analysis. Format: cell-based.

Series [8] concerns the target T6, N-acylethanolamine-hydrolyzing acid amidase (Homo sapiens, UniProt Q02083).
T6 sequence (Q02083 whole entry): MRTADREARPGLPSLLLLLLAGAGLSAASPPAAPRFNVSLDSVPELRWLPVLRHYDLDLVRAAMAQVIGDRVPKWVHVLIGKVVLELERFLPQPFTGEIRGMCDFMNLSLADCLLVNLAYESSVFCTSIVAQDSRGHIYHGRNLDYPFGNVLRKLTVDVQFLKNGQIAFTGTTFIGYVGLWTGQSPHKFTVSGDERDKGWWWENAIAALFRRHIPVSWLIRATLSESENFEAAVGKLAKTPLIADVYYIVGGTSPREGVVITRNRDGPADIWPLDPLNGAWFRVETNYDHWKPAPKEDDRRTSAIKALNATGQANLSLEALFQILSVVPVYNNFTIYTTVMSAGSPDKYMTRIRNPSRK
Briefly: Time dependent inhibition of recombinant human NAAA expressed in HEK293 cells by liquid scintillation counting method. It counts as cell-based.

Series [9] has as its target T6, N-acylethanolamine-hydrolyzing acid amidase. The experiment in a line: Time dependent inhibition of recombinant human NAAA expressed in HEK293 cell membranes using [14C]-PEA as substrate by liquid scintillation counting method.
The nature of series [10]: Half life in rat plasma. Format: ADME, cell-free.
Series [11] in a line: Half life in CD1 mouse plasma at 3 mg/kg, iv. Format: ADME, organism-based.
Series [12] can be described thus: Cmax in CD1 mouse plasma at 3 mg/kg, iv. Format: ADME, organism-based. Also on record: dose 3 mg/kg, route intravenous. To be noted: in vivo.
Series [13] in a line: Half life in mouse plasma. It counts as ADME, cell-free.
A short description of series [14]: Half life in mouse liver microsomes. Format: ADME, microsome.
Series [15] can be described thus: Half life in rat liver microsomes. Format: ADME, microsome.
The nature of series [16]: Half life in pH 7.4 buffer. Format: physicochemical.
Series [17] can be described thus: Half life in pH 5.0 buffer. Format: physicochemical.
In series [18] the target is T6, N-acylethanolamine-hydrolyzing acid amidase. Briefly: Inhibition of NAAA (unknown origin).
Series [19] addresses T2, Fatty-acid amide hydrolase 1. Briefly: Inhibition of mouse brain membrane FAAH preincubated for 10 mins followed by 14C-oleamide substrate addition measured up to 60 mins by TLC analysis.

For `CCCCCCCCCCCCCCCN=C=S`, the IC50 against Monoglyceride lipase and against Cannabinoid receptor 1 was greater than 10000 nM throughout.
As for `C=C(OC(=O)N1CCCCC1)c1ccc(-c2ccccc2)cc1`, the IC50 (usually the concentration needed to halve the response being measured) in series [1] stood at 9 nM.
In series [2], `CCCCCCCCCCCCCCCCS(=O)(=O)F` [HEXADECANESULFONYL FLUORIDE] gave an IC50 of 13 nM.
Consider `COc1cc(NC(=O)C(=O)c2c(C)n(Cc3ccc(Cl)cc3)c3ccc(C)cc23)ccn1`, for which, in [3], the bioavailability (in general, dose-corrected exposure relative to a reference, in per cent) was in the range of 14 to 21%. Further, the half-life – broadly, the time in which the quantity being followed falls by half – in series [4] fell in the range of 17 to 20 h. The IC50 in series [5] is 10 nM; at Cannabinoid receptor 1, greater than 1000 nM.
`O=C(CCc1ccc(-c2ccccc2)cc1)N1CCCC1`: the values for the IC50 in series [6] and in [7] were greater than 100000 nM and 2120 nM, respectively.
Take `CC(=O)Oc1cccc2c1C(=O)c1c(OC(C)=O)cc(C(=O)O)cc1C2=O` [DIACEREIN]: the IC50 in [8] and in series [9] was 700 to 7200 nM in each case.
In the case of `O=C(N[C@H]1CNC1=O)OCCCCC1CCCCC1`, the t1/2 stood at 0.2 h in [10] and 0.683 h in series [13]. Besides, the half-life in series [11] is 0.25 h; in [14] it was less than 5 min; in series [15], less than 5 min. In addition, the highest level in series [12] (Cmax) was 1610 ng/mL.
As to `O=C(CCCCCc1ccccc1)N1CCOC1=O`, the half-life in series [10] was 3.33 h; in [16], greater than 24 h; in series [17], greater than 24 h.
Consider `S=C=NCCCCCCCCCCc1ccccc1`, for which the figures for the IC50 in series [18] and in series [5] were 30 nM and greater than 100000 nM, respectively.
With `CN(C)C(=O)n1nnnc1Cc1ccc(-c2ccccc2)cc1`, inhibition in series [19] was half-maximal at 12.4 nM (IC50).
